Patent publication US20050031537A1, “Multifunctional COX-2 inhibitors” (priority 2002, published 2005)

Columns and labels:
[1] = tested on: HPV16 oncoproteins E6 and E7; assay: Western and Northern blotting for HPV16 oncoproteins E6 and E7 (test (d)); type: cell-based, human papillomavirus; details: positive in CaSki and SiHa cells
Protocol: We turn now to the criterion (d), that is at least 50% downregulation of expression of HPV16 oncoproteins E6 and E7.
Protein E6 and E7 which are expressed by HPV16 are believed to play a major role in carcinogenesis.
Western blotting and Northern blotting techniques were used to evaluate the expression of HPV E6 and E7 proteins. The cell lines used for the study were CaSKi and SiHa. The cells were treated with the test compound and cell lysate was obtained as described above and subjected to Western blotting analysis. The Western blotting analysis was performed as described above except anti-HPV 16 E7 antibody was used to probe the blot. The antibody was obtained from Santa Cruz Biotechnology, Inc. CA. For Northern blotting, total cellular RNA was isolated from cell monolayers using an RNA isolation kit from QIAGEN Inc. after treatment with the test compound. 10 μg of total cellular RNA per lane were electrophoresed in a formaldehyde-containing 1.2% agarose gel and transferred to nylon-supported membranes. After baking, membranes were prehybridized overnight in a solution containing 50% formamide, 5×sodium chloride-sodium phosphate-EDTA buffer (SSPE), 5×Denhardt's solution, 0.1% SDS and 100 μg/ml single-stranded salmon sperm DNA and then hybridized for 12 h at 42° C. with radiolabeled cDNA probes for human HPV16 E6 or E7 cDNAs and 18S rRNA. E6 and E7 (as described in Woodworth, C. D., Cancer Res. 16, 4397-4402 (2000)) and 18S rRNA probes were labeled with [^32P]-CTP by random priming. After hybridization, membranes were washed twice for 20 min at room temperature in 2×SSPE-0.1% SDS, twice for 20 min in the same solution at 55° C., and twice for 20 min in 0.1×SSPE-0.1% SDS at 55° C. Washed membranes were then subjected to autoradiography.

[2] = tested on: HER-2/neu; assay: Western blotting for expression of HER-2/neu (test (b)); type: cell-based, human; details: positive in 184B5/HER, BT474 and SKBR3 cells; 24 h; Western blot
Source text: (§1) We turn now to the criterion (b), that is at least 50% decrease in level of or 50% downregulation of expression of Class I family of receptors tyrosine kinase. The Class I family of receptors tyrosine kinase is described in Reese, M. D., et al Stem Cells 15, pages 1-8 (1997), the whole of which in incorporated herein by reference. Members of the family include HER-2/neu, HER-3, HER-4 and epidermal growth factor receptor (EGFR) and are single-chain membrane spanning proteins which have significant homology to one another including about 80% amino acid identity in the tyrosine kinase domain.
HER-2/neu (erbB-2) gene product is a 185-kDA transmembrane receptor tyrosine kinase that is described in some detail in said Reese et al publication and overexpression thereof has been associated with tumor growth in several kinds of cancer.
(§2) To evaluate the expression of Class I family of receptors tyrosine kinase (EGFR, HER-2/neu), Western blotting can be performed. Antibodies for EGFR and HER-2/neu can be obtained from Santa Cruz Biotechnology, Inc.
(§3) Expression of EGFR (performed in 184B5, 184B5/HER, 1483, LNCaP, HeLa and CaSki cells)and HER-2/neu (performed in 184B5/HER, SKBR3 and BT474 cells) was assessed in cells after treatment with test compound for 24 hours. 5×10^6 cells were used for the treatment. Western blotting technique was used to assess the expression levels in cells treated with the test compound compared to vehicle alone. Western blotting was carried out as follows:
(§4) Cell lysates were prepared by treating cells with lysis buffer (150 mM NaCl, 100 mM Tris (pH 8.0), 1% Tween 20, 50 mM diethyldithiocarbamate, 1 mM EDTA, 1 mM phenylmethylsulfonyl fluoride, 10 μg/ml aprotinin, 10 μg/ml trypsin inhibitor and 10 μg/ml leupeptin). Lysates were sonicated for 20 s on ice and centrifuged at 10,000×g for 10 min to sediment the particulate material. The protein concentration of the supernatant was measured by the method of Lowry, O. H., et al., J. Biol. Chem. 193, 265-275 (195 1). SDS/PAGE was performed under reducing conditions on 10% polyacrylamide gels as described by Laemmli, U.K., Nature (Lond.) 227, 680-685 (1970). The resolved proteins were transferred onto nitrocellulose sheets as detailed by Towbin, H. et al., Proc. Natl. Acad. Sci. USA 76, 4350-4354 (1979). The nitrocellulose membrane was then incubated with anti-EGFR antiserum or anti-HER-2/neu antiserum. Secondary antibody to IgG conjugated to horseradish peroxidase was used. The various antisera were purchased from Santa Cruz Biotechnology, Inc., CA. The blots were probed with the Renaissance Western blot detection system according to the manufacturer's instructions (PerkinElmer Life Sciences, Boston, Mass.).

[3] = Patient with cervical intraepithelial neoplasia, HPV 16 detected (Example VIII); type: in vivo, human; details: person, 0.5% in a cream on sponge/cervical cap, six months
Source text: A person presents to their gynecologist for evaluation. […] On biopsy, the patient is found to have cervical intraepithelial neoplasia. HPV 16 is detected. […] The SC-236 is discontinued with no recurrence of cervical intraepithelial neoplasia.

[4] = Patient with atherosclerosis (Example VI); type: in vivo, human; details: person one, 200 mg bid
Source text: patient one presents with symptoms of chest discomfort on exertion and is diagnosed with atherosclerosis. […] The progression of the atherosclerosis stops.

[5] = tested on: Nrf-2; assay: Western and Northern blotting for expression of Nrf-2 (test (g)); type: cell-based, human; details: positive in 184B5, 184B5/HER, HCA7, HCT116, SKBR3, BT474 and CaSki cells
Protocol: We turn now to criterion (g), i.e. at least 50% increase in expression of Nrf-2. […] 13, 2001).
Western blotting and Northern blotting techniques were used to evaluate the expression of Nrf-2. The expression of Nrf-2 was evaluated in HCA7, HCT116, SKBR3, CaSki, 184B5/HER, 184B5 and BT474 cells. 5×10^6cells were used to treat either vehicle alone or the test compound. The Western blotting analysis was performed as described above except anti-Nrf-2 antibody was used to probe the blot. The antibody was obtained from Santa Cruz Biotechnology, Inc. CA. Northern blotting for Nrf-2 was performed as described above and cDNA for Nrf-2 as described in Gong, P., et al., J.Biol Chem 20; 276:27018-27025 (2001) was used as a probe.

[6] = tested on: EGFR; assay: Western blotting for expression of EGFR (test (b)); type: cell-based, human; details: positive in 184B5, 184B5/HER, 1483, LNCaP, HeLa and CaSki cells; 24 h; Western blot
Source text: as §1
Epidermal growth factor receptor (EGFR) is a 170 kDA glycoprotein. […] After ligand binding, EGFR undergoes dimerization which is essential for activation of its enzymatic kinase activity. EGFR is thus autophospliorylated and transphosphorylated on tyrosine residues, and the phosphorylated residues become the site of association of effector proteins. Overexpressed EGFR is intimately involved in modulating the epidermal growth factor growth signal and is considered as likely to confer a growth advantage. This conclusion is supported by the observation that tumor growth in nude mice is inhibited by treatment with anti-EGFR antibodies and tumorigenicity in nude mice is inhibited through blockage of the tyrosine kinase activity of the receptor.
as §2, §3, §4

[7] = tested on: cyclin D1; assay: Western blotting for expression of cyclin D1 (test (c)); type: cell-based, human; details: positive in 184B5, 184B5/HER cells; 24 h; Western blot
Protocol: Cyclin D1 is a protein that is important in regulating cell proliferation and is described in Ortega, S., et al, Biochimica et Biophysica Acta 1602, 73-87, (2002), the whole of which is incorporated by reference. […] Effects on expression of cyclin D1 was investigated in 184B5, 184B5/HER, HCA7, HCT116, SKBR3 and BT474 cells. The expression was assessed in cells after treatment with test compound or vehicle using 5×10^4 cells for 24 hours. Western blotting technique was used as follows to assess the expression levels of cyclin D1 in cells treated with the test compound and compared to levels in cells treated with vehicle alone. Cell lysates were prepared by treating cells with lysis buffer as described above. […] The resolved proteins were transferred onto nitrocellulose sheets. The nitrocellulose membrane was then incubated with anti-cyclin D1 antiserum. Secondary antibody to IgG conjugated to horseradish peroxidase was used. The various antisera were purchased from Santa Cruz Biotechnology, Inc., CA. The blots were probed with the Renaissance Western blot detection system according to the manufacturer's instructions (PerkinElmer Life Sciences, Boston, Mass.).

[8] = tested on: PPRE luciferase; assay: PPRE luciferase activation, transient transfection reporter assay (test (a)); type: cell-based, human; details: positive in 184B5, 184B5/HER, HCA7, HCT116, SKBR3 and BT474 cells; 24 h treatment
Source text: We turn now to criterion (a), that is activation of PPRE luciferase by at least 100%. PPRE-luciferase refers to a DNA construct containing the peroxisome proliferator activated receptor (PPAR) binding element joined to luciferase. Cells are transfected with PPRE-luciferase DNA. Ligands of PPAR induce luciferase activity. The ability of a test compound to stimulate PPRE-luciferase signifies that the test compound activates PPAR-mediated gene transcription. PPRE means peroxisome proliferator response element and the method by which PPRE-luciferase is constructed is described in Schoonjans, K., et al, J. Biol. Chem. 270, No. 33, 19269-19276 (Aug. 18, 1995). Use of PPRE-luciferase in a transient transfection to measure increase in promoter activity is disclosed in Subbaramaiah, K. et al, J. Biol. Chem. 270, No. 15, 12440-12448 (Apr. 13, […]).
For each well, 1.8 μg of PPRE3-tk-luciferase construct plasmid DNA (described in Forman, B. M., et al, Cell 83, 803 (1995)) plus 0.2 μg of pSV-β-galactosidase were introduced into cells using 8 μg of LipofectAMINE as per the manufacturer's instructions (Invitrogen, CA). After 7 h of incubation, the medium was replaced with basal medium. After transfection, cells were treated with test compound for 24 h. Reporter activities which include luciferase and β-galactosidase were measured in cellular extract 24 h later. Six wells were used for each of the conditions. Luciferase activity represents data that have been normalized with β-galactosidase.
The luciferase assay was performed as per the BD Pharmingen assay reagents. The Enhanced Luciferase Assay Kit provides a firefly luciferase substrate formulation (Substrates A and B) and cell lysis buffer intended for use in measuring luciferase expressed by transfected cells. Media from cell culture plates was removed and rinsed twice with phosphate buffered saline. Enough 1X cell lysis buffer was added to cover cells and incubated at room temperature for 15-20 min. Cells were dislodged by scraping and transferred to microcentrifuge tubes. […] 20-100 μl cell extract was placed into an assay cuvette. One automatic injector type luminometer is used for assay. Manually 100 μl of Substrate A was added to the assay cuvette and automatically 100 μl of Substrate B was injected. Measurements were performed using a luminometer, for a measurement time of 10 seconds.
The β-galactosidase assay was performed as follows:
50 μl of cell lysate from above was incubated with 50 μl of o-nitrophenyl-β-D-galactoside (ONPG; 4 mg/mL) in Z buffer, (Na2HPO4.7H2O (0.06M), NaH2PO4.H2O (0.04M), 1M KCl (0.01M), 1M MgSO4 (0.001M), β-mercaptoethanol (BME) (0.05M) pH 7.0). The reaction was stopped after sufficient yellow color has developed. The yellow color developed is measured at A420 […].

Row | Compound | Test (d) at least 50% downregulation of expression of HPV16 oncoproteins E6 and E7 [1] | Test (b) HER-2/neu: at least 50% decrease in level of or 50% downregulation of expression [2] | repeat biopsy finding of cervical intraepithelial neoplasia [3] | progression of the atherosclerosis [4] | Test (g) at least 50% increase in expression of Nrf-2 [5] | Test (b) EGFR: at least 50% decrease in level of or 50% downregulation of expression [6] | Test (c) at least 50% downregulation of expression of cyclin D1 [7] | Test (a) activation of PPRE luciferase by at least 100% [8]
1 | COc1ccc(-n2nc(C(F)(F)F)cc2-c2ccc(Cl)cc2)cc1 [SC-560, 5-(4-chlorophenyl)-1-(4-methoxyphenyl)-3-(trifluoromethyl)-1H-pyrazole] | + (A plus sign in the table indicates a positive result, that is meeting the test for each cell line as indicated above as providing a positive result) | + (A plus sign in the table indicates a positive result, that is meeting the test for each cell line as indicated above as providing a positive result) | no evidence of cervical intraepithehal neoplasia | stops |  |  |  | 
2 | COc1ccc2c(c1)c(CC(=O)Nc1ccc(NC(C)=O)cc1)c(C)n2C(=O)c1ccc(Cl)cc1 [Indomethacin Analog 5] |  |  |  |  | + (A plus sign in the table indicates a positive result, that is meeting the test for each cell line as indicated above as providing a positive result) | + (A plus sign in the table indicates a positive result, that is meeting the test for each cell line as indicated above as providing a positive result) | + (A plus sign in the table indicates a positive result, that is meeting the test for each cell line as indicated above as providing a positive result) | + (A plus sign in the table indicates a positive result, that is meeting the test for each cell line as indicated above as providing a positive result)
